Consider seven molecules from PubChem BioAssay AID492984 (Sanford-Burnham Center for Chemical Genomics, 2010).

The source made the active and inactive calls.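 Rule for the calls: active = IC50 below 20 µM in the dose response test; inactive = the rest.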 Where only a bound is given, the exact number is not on record here.

The target of the assay is Type-1 angiotensin II receptor (Homo sapiens) (UniProt P30556). In words: AT1 receptor antagonists, beta-arrestin recruitment, SAR follow-up, selectivity assay for APJ antagonist project, cell-based, CHO-K1 PathHunter, luminescence, set 3 (AID 492984). As to conditions: CHO-K1 AGTR1 PathHunter beta-arrestin.
Type-1 angiotensin II receptor (Homo sapiens), sequence (P30556 whole entry, looked up): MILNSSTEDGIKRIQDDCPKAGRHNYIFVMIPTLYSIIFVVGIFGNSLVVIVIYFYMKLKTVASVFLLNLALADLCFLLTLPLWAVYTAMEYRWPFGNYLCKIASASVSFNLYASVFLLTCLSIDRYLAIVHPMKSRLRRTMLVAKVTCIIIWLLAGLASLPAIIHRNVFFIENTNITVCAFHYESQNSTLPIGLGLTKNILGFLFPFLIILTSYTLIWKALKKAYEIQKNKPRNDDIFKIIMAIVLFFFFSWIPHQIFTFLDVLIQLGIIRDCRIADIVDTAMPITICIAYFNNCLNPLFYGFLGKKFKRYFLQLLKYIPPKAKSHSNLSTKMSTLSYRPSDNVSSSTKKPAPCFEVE

On to `Cc1cc(C)nc(SCc2cc(=O)c(OS(=O)(=O)c3ccc([N+](=O)[O-])cc3)co2)n1`, for which the IC50 – broadly, the concentration at which inhibition is half-maximal – was > 79 µM (inactive). In the case of `Cc1cc(C)nc(SCc2cc(=O)c(OS(=O)(=O)c3ccccc3)co2)n1` it was > 79 µM (inactive); in that of `Cc1ccnc(SCc2cc(=O)c(NC(=O)c3ccccc3)co2)n1`, > 79 µM (inactive).

Take `O=c1cc(CSc2ccc(F)cc2)occ1O`: the IC50 is > 79 µM (inactive).

As to `O=C(Oc1coc(CSc2ncccn2)cc1=O)c1ccc([N+](=O)[O-])cc1`, the IC50 is > 79 µM (inactive).

With `O=C(Oc1coc(CCl)cc1=O)c1ccc(Cl)c([N+](=O)[O-])c1`, the IC50 is > 79 µM (inactive). The same measure for `Cc1ccnc(SCc2cc(=O)c(OC(=O)c3cccc(C#N)c3)co2)n1`: > 79 µM (inactive).
